Reference: PubChem BioAssay AID400 (SGCOxCompounds, 2006)

What follows are molecules tested against Tyrosine-protein phosphatase non-receptor type 5 (Homo sapiens) (UniProt P54829) (assay: PTPN5 (STEP) phosphatase inhibitors, biochemical, human, DiFMUP fluorescence (AID 400)). Settings: recombinant PTPN5, DiFMUP fluorescence phosphatase assay; at 50 µM; enzyme 6.5 ng/mL; DTT 5 mM; active compounds read high.
Sequence of Tyrosine-protein phosphatase non-receptor type 5 (Homo sapiens) (P54829 whole entry, looked up): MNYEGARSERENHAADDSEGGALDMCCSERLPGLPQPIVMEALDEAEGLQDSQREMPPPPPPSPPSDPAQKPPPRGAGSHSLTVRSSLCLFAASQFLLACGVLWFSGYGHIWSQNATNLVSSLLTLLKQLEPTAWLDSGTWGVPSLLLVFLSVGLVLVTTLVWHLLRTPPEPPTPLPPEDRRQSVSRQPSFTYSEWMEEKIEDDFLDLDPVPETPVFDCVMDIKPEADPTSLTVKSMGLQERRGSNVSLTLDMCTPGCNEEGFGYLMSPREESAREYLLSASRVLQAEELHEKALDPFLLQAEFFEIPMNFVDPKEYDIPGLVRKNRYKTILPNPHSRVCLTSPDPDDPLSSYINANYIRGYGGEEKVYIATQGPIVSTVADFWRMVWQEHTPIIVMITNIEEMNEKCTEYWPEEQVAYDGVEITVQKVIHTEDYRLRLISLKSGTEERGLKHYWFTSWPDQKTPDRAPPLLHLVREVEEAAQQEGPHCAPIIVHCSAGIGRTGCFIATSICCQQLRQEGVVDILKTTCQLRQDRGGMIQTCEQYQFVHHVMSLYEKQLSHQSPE

SMILES	inhibition
NC1=NC(=O)/C(=C/C=C/c2ccc([N+](=O)[O-])o2)S1	75.5%
COc1cc[n+](C(=O)N(C)C)cc1	14%
O=C1NC(=S)S/C1=C\C=C\c1ccc([N+](=O)[O-])o1	88%
CC1(C)OC(=O)C(=Cc2ccc(Br)o2)C(=O)O1	7%
Oc1c(Cl)c(Cl)c(O)c2nsnc12	33%

Results, then the molecule that gave them:

inhibition	SMILES
46%	CC(=O)c1ccc2c(c1)C1C=CCC1C(C(=O)O)N2 (stereo not given)
17%	O=C(O)C1Nc2c(O)cccc2C2C=CCC12 (stereo not given)

Same assay, conditions: recombinant PTPN5, DiFMUP fluorescence phosphatase assay; at 50 µM; enzyme 20 ng/mL; DTT 1 mM; active compounds read high

SMILES	inhibition
Cn1nc(-c2ccccc2)nc2c(=O)n(C)c(=O)nc1-2	95%

Same assay, conditions: recombinant PTPN5, DiFMUP fluorescence phosphatase assay; at 50 µM; enzyme 87 ng/mL; DTT 5 mM; active compounds read high

SMILES	inhibition
O=C(O)c1ccc([O-])cn1.OO.OO.[K+].[K+].[O]=[V]	90%
O=C(O)c1ccc(O)cn1.OO.[O]=[V]	63%
CC(C)(C)NC(=O)CCN(/N=C/c1cc(C(=O)O)ccc1O)C1=NS(=O)(=O)c2ccccc21	30%
OO.OO.[K+].[O]=[V].c1ccc(-c2ccccn2)nc1	67%
F	91%
Cc1ccc2nc(-c3cc(N=Cc4cc(C(=O)O)ccc4O)ccc3O)[nH]c2c1	53%
O=C(O)c1ccc(O)c(/C=N/N(CCO)C2=NS(=O)(=O)c3ccccc32)c1	43%
OO.OO.[K+].[O]=[V].c1cnc2c(c1)ccc1cccnc12	72%

Results, then the molecule that gave them:

inhibition	SMILES
29%	CC(C)C(=O)Nc1ccc(O)cc1C(=O)O
90%	O=C([O-])c1ccccn1.OO.OO.[K+].[K+].[O]=[V]
70%	O=C(O)c1ccc(O)c(C=Nc2ccc3oc(-c4ccc(F)cc4Cl)nc3c2)c1
83%	COc1ccc(-c2nc3cc(N=Cc4cc(C(=O)O)ccc4O)ccc3o2)cc1
33%	O=C(O)c1ccc(O)c(C=Nc2ccc3oc(-c4cccc(Cl)c4Cl)nc3c2)c1
33%	COc1ccccc1C(=O)Nc1ccc(O)cc1C(=O)O
38%	O=C(O)c1ccc(O)c(C=Nc2cccc(-c3nc4ccccc4o3)c2)c1

Same assay, conditions: recombinant PTPN5, DiFMUP fluorescence phosphatase assay; dose 33 (unit in doubt); enzyme 28.9 ng/mL; DTT 1 mM; active compounds read high

inhibition	SMILES
43%	[NH-]CO.[NH-]CO.[NH-]CO.[NH-]CO.[O]=[V][O][V]=[O]

Same assay, conditions: recombinant PTPN5, DiFMUP fluorescence phosphatase assay; dose 200 (unit in doubt); enzyme 20 ng/mL; DTT 1 mM; active compounds read high

SMILES	inhibition
CCn1nc(-c2ccc(Cl)cc2)nc2c(=O)n(C)c(=O)nc1-2	67.5%
O=P(O)(O)OP(=O)(O)O	31.6%
Cn1nc(/C=C/c2ccccc2)nc2c(=O)n(C)c(=O)nc1-2	70%

Second part, the molecule after the results:

inhibition	SMILES
52%	Cn1c(=O)[nH]c2c(c1=O)[n+](=O)c(/C=C/c1ccccc1)nn2C
54%	CCn1nc(/C=C/c2ccccc2)[n+](=O)c2c(=O)n(C)c(=O)[nH]c21
99.4%	CCCCOC(OCCCC)(OCCCC)OCCCC
